According to patent US11446282B2, “Methods of treating mixed dyslipidemia and hypertriglycertdemia” (Kowa Company, Ltd., priority 2017, dated 2022):

System: dyslipidemic patients with or without statin
Experiment: Example 4 pooled analysis of phase 2 and 3 studies: safety parameters
Type: in vivo, human
Description: The present study analyzed data combined from 6 randomized double-blind placebo-controlled studies that were conducted in Japan and continued for 12 weeks unless otherwise noted: a phase 2 study in 224 patients with a history of documented dyslipidemia and plasma TG of 200 mg/dL (2.26 mmol/L) or higher, randomized to placebo, pemafibrate 0.05, 0.1, 0.2, 0.4 mg/day, or fenofibrate 100 mg/day; a phase 3 study in 526 patients with dyslipidemia, high TG levels, and low HDL-C levels, randomized to placebo, pemafibrate 0.1, 0.2, or 0.4 mg/day, or fenofibrate 100 or 200 mg/day; a study in 188 patients with dyslipidemia, randomized to pitavastatin in combination with pemafibrate 0.1, 0.2, or 0.4 mg/day; a 24-week study in 423 patients with dyslipidemia, randomized to pemafibrate 0.2 mg/day (fixed dose) or 0.2 [0.4] mg/day (conditional up-titration) with any statin; a 24-week phase 3 study in 166 patients with type 2 diabetes and hypertriglyceridemia, randomized to placebo or pemafibrate 0.2 or 0.4 mg/day; and a study in 27 patients with hypertriglyceridemia and insulin resistance, randomized to pemafibrate 0.4 mg/day or placebo. All studies were approved by the Institutional Review Board for each study institution and were conducted in accordance with the Declaration of Helsinki and under the guidelines of Good Clinical Practice.
In this study, we evaluated the efficacy and safety of pemafibrate at doses of 0.1 mg/day, 0.2 mg/day, and 0.4 mg/day, with and without statin. The primary efficacy endpoint was percent change in TG from baseline to 12 weeks. The secondary efficacy endpoints were also assessed from baseline to 12 weeks: percent change in HDL-C, LDL-C, non-HDL-C, TC, RemL-C, Apo AI, Apo AII, Apo B, Apo B48, Apo CII, Apo CIII, Apo CIII/Apo CII, and Apo E; percent change in HPLC findings for CM-C, VLDL-C, cholesterol content in 4 subclasses of LDL (large, medium, small, and very small LDLs), and cholesterol content for 5 subclasses of HDL (very large, large, medium, small, and very small HDLs); and changes in fibrinogen and FGF21. The primary safety endpoints were the incidence of adverse events and adverse drug reactions. Secondary safety endpoints were percentage of values above the upper limit of normal range for AST, ALT, sCr and CK, and change in sCr eGFR, CK, AST, ALT, gamma-glutamyl transferase (γ-GT), alkaline phosphatase (ALP), and total bilirubin.
Patients with renal dysfunction were defined as those with baseline eGFR<60 mL/min/1.73 m^2. Analysis was stratified by the presence or absence of renal dysfunction in the concomitant statin group, and efficacy and safety of pemafibrate were evaluated. In efficacy and safety evaluations excluding AEs, ADRs, and cutoff values for AST, ALT, sCr, and CK, findings were combined for pemafibrate subgroups receiving doses of 0.1 mg/day, 0.2 mg/day, and 0.4 mg/day.
For each lipid parameter, gel filtration HPLC was performed at Skylight Biotech, Inc. Other measurements were performed at LSI Medience Corporation. The FAS was used for analyzing efficacy parameters of effects on lipids, fibrinogen, and FGF21. The safety analysis set was used for safety parameters and included all patients who received at least one dose of the study drug. For lipid parameters, fibrinogen, and FGF21, LS means (95% confidence interval) were calculated at Week 12 (LOCF) using analysis of covariance (ANCOVA) with baseline values as the co-variable within each category. For safety parameters, LS means (95% confidence interval) were calculated at Week 12 using ANCOVA with baseline values as the co-variable within each category. SAS version 9.2 was used for analyses.

[1] = Without Statin, 0.1 mg/day, n=82
[2] = Without Statin, 0.2 mg/day, n=202
[3] = Without Statin, 0.4 mg/day, n=173
[4] = Without Statin, 0.4 mg/day, n=174

## CC[C@@H](Oc1cccc(CN(CCCOc2ccc(OC)cc2)c2nc3ccccc3o2)c1)C(=O)O [Pemafibrate, (2R)-2-[3-({1,3-benzoxazol-2-yl[3-(4-methoxyphenoxy)propyl]amino}methyl)phenoxy]butanoic acid]
With Statin, 0.1 mg/day, n=45
  ADE Leading to withdrawal, number of patients: 1
  ADE Leading to withdrawal, percentage of patients: (2.2) percentage
  ADE Serious, number of patients: 0
  ADE Total, number of patients: 3
  ADE Total, percentage of patients: (6.7) percentage
  AE Leading to withdrawal, number of patients: 2
  AE Leading to withdrawal, percentage of patients: (4.4) percentage
  AE Serious, number of patients: 2
  AE Serious, percentage of patients: (4.4) percentage
  AE Total, number of patients: 29
  AE Total, percentage of patients: (64.4) percentage
  ALT ≥ ULN × 3, number of patients: 1
  ALT ≥ ULN × 3, percentage of patients: (2.2) percentage
  AST ≥ ULN × 3, number of patients: 0
  CK ≥ 2.5 and < ULN × 5, number of patients: 2
  CK ≥ 2.5 and < ULN × 5, percentage of patients: (4.4) percentage
  CK ≥ 5 and < ULN × 10, number of patients: 0
  CK ≥ ULN × 10, number of patients: 0
  sCr ≥ ULN, number of patients: 8
  sCr ≥ ULN, percentage of patients: (17.8) percentage
With Statin, 0.2 mg/day, n=382
  ADE Leading to withdrawal, number of patients: 11
  ADE Leading to withdrawal, percentage of patients: (2.9) percentage
  ADE Serious, number of patients: 2
  ADE Serious, percentage of patients: (0.5) percentage
  ADE Total, number of patients: 36
  ADE Total, percentage of patients: (9.4) percentage
  AE Leading to withdrawal, number of patients: 12
  AE Leading to withdrawal, percentage of patients: (3.1) percentage
  AE Serious, number of patients: 6
  AE Serious, percentage of patients: (1.6) percentage
  AE Total, number of patients: 164
  AE Total, percentage of patients: (42.9) percentage
  ALT ≥ ULN × 3, number of patients: 0
  AST ≥ ULN × 3, number of patients: 1
  AST ≥ ULN × 3, percentage of patients: (0.3) percentage
  CK ≥ 2.5 and < ULN × 5, number of patients: 7
  CK ≥ 2.5 and < ULN × 5, percentage of patients: (1.6) percentage
  CK ≥ 5 and < ULN × 10, number of patients: 3
  CK ≥ 5 and < ULN × 10, percentage of patients: (0.6) percentage
  CK ≥ ULN × 10, number of patients: 1
  CK ≥ ULN × 10, percentage of patients: (0.3) percentage
  sCr ≥ ULN, number of patients: 61
  sCr ≥ ULN, percentage of patients: (16.0) percentage
With Statin, 0.4 mg/day, n=72
  ADE Leading to withdrawal, number of patients: 0
  ADE Serious, number of patients: 0
  ADE Total, number of patients: 2
  ADE Total, percentage of patients: (2.8) percentage
  AE Leading to withdrawal, number of patients: 0
  AE Serious, number of patients: 0
  AE Total, number of patients: 34
  AE Total, percentage of patients: (47.2) percentage
  ALT ≥ ULN × 3, number of patients: 1
  ALT ≥ ULN × 3, percentage of patients: (1.4) percentage
  AST ≥ ULN × 3, number of patients: 1
  AST ≥ ULN × 3, percentage of patients: (1.4) percentage
  CK ≥ 2.5 and < ULN × 5, number of patients: 2
  CK ≥ 2.5 and < ULN × 5, percentage of patients: (2.8) percentage
  CK ≥ 5 and < ULN × 10, number of patients: 0
  CK ≥ ULN × 10, number of patients: 0
  sCr ≥ ULN, number of patients: 11
  sCr ≥ ULN, percentage of patients: (15.3) percentage
[1]
  ADE Leading to withdrawal, number of patients: 1
  ADE Leading to withdrawal, percentage of patients: (1.2) percentage
  ADE Serious, number of patients: 0
  ADE Total, number of patients: 3
  ADE Total, percentage of patients: (3.7) percentage
  AE Leading to withdrawal, number of patients: 2
  AE Leading to withdrawal, percentage of patients: (2.4) percentage
  AE Serious, number of patients: 1
  AE Serious, percentage of patients: (1.2) percentage
  AE Total, number of patients: 27
  AE Total, percentage of patients: (32.9) percentage
  ALT ≥ ULN × 3, number of patients: 0
  AST ≥ ULN × 3, number of patients: 0
  CK ≥ 2.5 and < ULN × 5, number of patients: 2
  CK ≥ 2.5 and < ULN × 5, percentage of patients: (2.4) percentage
  CK ≥ 5 and < ULN × 10, number of patients: 0
  CK ≥ ULN × 10, number of patients: 0
  sCr ≥ ULN, number of patients: 15
  sCr ≥ ULN, percentage of patients: (18.3) percentage
[2]
  ADE Leading to withdrawal, number of patients: 2
  ADE Leading to withdrawal, percentage of patients: (1.0) percentage
  ADE Serious, number of patients: 1
  ADE Serious, percentage of patients: (0.5) percentage
  ADE Total, number of patients: 14
  ADE Total, percentage of patients: (6.9) percentage
  AE Leading to withdrawal, number of patients: 3
  AE Leading to withdrawal, percentage of patients: (1.5) percentage
  AE Serious, number of patients: 4
  AE Serious, percentage of patients: (2.0) percentage
  AE Total, number of patients: 78
  AE Total, percentage of patients: (38.6) percentage
  ALT ≥ ULN × 3, number of patients: 0
  AST ≥ ULN × 3, number of patients: 0
  CK ≥ 2.5 and < ULN × 5, number of patients: 3
  CK ≥ 2.5 and < ULN × 5, percentage of patients: (1.5) percentage
  CK ≥ 5 and < ULN × 10, number of patients: 0
  CK ≥ ULN × 10, number of patients: 0
  sCr ≥ ULN, number of patients: 34
  sCr ≥ ULN, percentage of patients: (16.8) percentage
[3]
  ALT ≥ ULN × 3, number of patients: 0
  AST ≥ ULN × 3, number of patients: 1
  AST ≥ ULN × 3, percentage of patients: (0.6) percentage
  CK ≥ 2.5 and < ULN × 5, number of patients: 0
  CK ≥ 5 and < ULN × 10, number of patients: 1
  CK ≥ 5 and < ULN × 10, percentage of patients: (0.6) percentage
  CK ≥ ULN × 10, number of patients: 1
  CK ≥ ULN × 10, percentage of patients: (0.6) percentage
  sCr ≥ ULN, number of patients: 22
  sCr ≥ ULN, percentage of patients: (12.7) percentage
[4]
  ADE Leading to withdrawal, number of patients: 3
  ADE Leading to withdrawal, percentage of patients: (1.7) percentage
  ADE Serious, number of patients: 1
  ADE Serious, percentage of patients: (0.6) percentage
  ADE Total, number of patients: 16
  ADE Total, percentage of patients: (9.2) percentage
  AE Leading to withdrawal, number of patients: 6
  AE Leading to withdrawal, percentage of patients: (3.4) percentage
  AE Serious, number of patients: 2
  AE Serious, percentage of patients: (1.1) percentage
  AE Total, number of patients: 60
  AE Total, percentage of patients: (34.5) percentage
